Measured values from patent US5340806A, “Composition containing organogermanium compound and immunity adjusting agent comprising the composition” (Sanwa Kagaku Kenkyusho Co., Ltd., priority 1984, dated 1994).
Read-outs that look alike come from different tables or passages of the source.

Tests used:
[1] = system: HIV (Human Immunodeficiency Virus); assay type: in vivo; settings: for OKT4/8 ratio: before 0.36±0.03; for OKT4-value: before 463±64/μl
Method: Effects of the organogermanium compound are checked by giving the capsule obtained in Pharmaceutical Composition Preparing Example 7 to 6 patients infected by HIV (Human Immunodeficiency Virus), who are male hemophiliacs (Age: 6 to 22 years old) recognized as asymptomatic carriers, and among them 5 patients were positive to HIV and 1 patient was negative to HIV.
To each patient, the capsule was given in a dose of 80 mg/day for the patients of 10 years old or over and 40 mg/1 day for the patients less than 10 years old, for 9 months. The number of blood lymphocytes, OKT4 -value, OKT8 -value and OKT4/8 ratio, as well as the change in the virus marker (HIV, HIV antigen and HIV antibody) in blood of the patients were monitored. The separation of the HIV was carried out in accordance with the CDC (Communicable Disease Center) method, and the measurement of the HIV antigen was carried out using the Western blotting method.

chronic B hepatitis [2] = assay: Long term dosing in chronic B hepatitis (In Vivo Utilization Example 4); parameters: species or system human patients; settings: for Liver tissue improvement: Ballooning of cell: 4 patients; for Liver tissue improvement: Bridging necrosis: 9 patients; for Liver tissue improvement: Fatty degeneration: 11 patients; for Liver tissue improvement: Moderation of lobule: 15 patients; for Glisson's capsule improvement: Piecemeal necrosis: 17 patients; for Glisson's capsule improvement: Fibrosis: 23 patients; for Glisson's capsule improvement: Round cell infiltration / Liver tissue improvement: Cobwebby necrosis / Liver tissue improvement: Degenerative necrosis in cell / Liver tissue improvement: Mobilization image of Kupfer cell: 24 patients
Method: A capsule containing the organogermanium compound was dosed to patients infected with chronic B hepatitis over a long period of time at a rate of 30 mg/day/body as the effective compound to check safety and effectiveness.
(a) Number of patients for analysis: 34 persons.
(b) Mean dosing period of time: 55 weeks.
(c) Number of patients who continuously dose over 48 weeks: 26 persons.

chronic B hepatitis [3] = assay type: in vivo, human patients; settings: 30 mg/day
From the text: Utility or effectiveness of the organogermanium compound is checked in comparison with that of a placebo as a control. Interferons have widely been accepted as drugs for curing chronic hepatitis, but those are injectionally dosed. On the contrary, the organogermanium compound is orally dosed. In recent years, some oral medicines for curing liver diseases have been developed and the effectiveness thereof has been evaluated by using a placebo as its control. Therefore, the "placebo" is selected as the control for the evaluation of the organogermanium compound in question. (a) To patients with chronic B hepatitis: 30 mg/day/body. Experiment period of time was set for 16 weeks for the patients with chronic B hepatitis and for 12 weeks for the patients with non A and non B hepatitis.

[4] = system: chronic non A non B hepatitis; assay: Long term dosing in chronic non A non B hepatitis (In Vivo Utilization Example 6); parameters: species or system human patients; settings: for Liver tissue improvement: Ballooning of cell: 4 patients; for Liver tissue improvement: Moderation of lobule: 8 patients; for Liver tissue improvement: Fatty degeneration: 9 patients; for Glisson's capsule improvement: Piecemeal necrosis: 13 patients; for Liver tissue improvement: Mobilization image of Kupfer cell: 16 patients; for Glisson's capsule improvement: Fibrosis / Glisson's capsule improvement: Round cell infiltration / Liver tissue improvement: Cobwebby necrosis / Liver tissue improvement: Degenerative necrosis in cell: 17 patients
Method: A capsule containing the organogermanium compound was dosed to patients infected with chronic non A non B hepatitis over a long period of time to check safety and effectiveness of the organogermanium compound.
(a) Number of patients for analyzation: 68 persons.
Group A: 39 persons (dose; 30 mg/day/body), and
Group B: 29 persons (dose; 60 mg/day/body).
(b) Mean dosing period of time
(c) Number of patients who continuously dose over 48 weeks

[5] = 30 mg/day, patients of total 35
[6] = 60 mg/day, patients of total 26

Substance: 3-oxygermylpropionic acid [Compound No. 1]
- side-effect in clinical observation ([1]; 9 months): did not show any side-effect
- OKT4/8 ratio ([1]; after 1 month): 0.42±0.02
- OKT4-value ([1]; after 2 months): 549 ± 89 µL⁻¹
- OKT4/8 ratio ([1]; after 3 months): 0.51±0.06
- OKT4/8 ratio ([1]; after 6 months): 0.54±0.05
- OKT4-value ([1]; after 6 months): 629 ± 97 µL⁻¹
- OKT8-value ([1]; after 6 months, before 1303±174/μl): 1154 ± 153 µL⁻¹
- number of lymphocytes ([1]; after 6 months, before 2430±311/μl): 2349 ± 312 µL⁻¹
- HIV disappeared (persons) ([1]; among 5 HIV positive patients, dosage over 6 months): 3 persons
- no change in virus marker (persons) ([1]; among 5 HIV positive patients, over 9 months): 2 persons
- change in OKT4-value ([1]; human, in vivo): a certain increasing tendency
- change in OKT4/8 ratio ([1]; human, in vivo): a slow increase in the ratio
- change in OKT8-value ([1]; human, in vivo): a certain decreasing tendency
- change in number of lymphocytes ([1]; human, in vivo): No noticeable change
- some increase in appetite and body weight (persons) ([1]; human, in vivo): 2 persons
- ratio of improvement in functions of liver (at least slight), judgement of doctor in charge (chronic B hepatitis [2]; 30 mg/day/body, mean 55 weeks): 63%
- ratio of improvement in functions of liver (at least slight), secondary judgement of committee (chronic B hepatitis [2]; 30 mg/day/body, mean 55 weeks): 59%
- patients changed to SC (seroconversion) (chronic B hepatitis [2]; among 23 HBe antigen positive): 3 patients
- patients changed to SN (seronegative) (chronic B hepatitis [2]; among 23 HBe antigen positive): 3 patients
- ratio of disappearance of HBe antigen (chronic B hepatitis [2]; among 23 HBe antigen positive): 26%
- Liver tissue improvement: Evaluation (chronic B hepatitis [2]; ≥middle, 3/24): 12.5%
- Liver tissue improvement: Ballooning of cell (chronic B hepatitis [2]; ≥middle): 0%
- Liver tissue improvement: Bridging necrosis (chronic B hepatitis [2]; ≥middle): 22.2%
- Liver tissue improvement: Fatty degeneration (chronic B hepatitis [2]; ≥middle): 0%
- Liver tissue improvement: Moderation of lobule (chronic B hepatitis [2]; ≥middle): 0%
- Glisson's capsule improvement: Piecemeal necrosis (chronic B hepatitis [2]; ≥middle): 17.6%
- Glisson's capsule improvement: Fibrosis (chronic B hepatitis [2]; ≥middle): 8.7%
- Glisson's capsule improvement: Round cell infiltration (chronic B hepatitis [2]; ≥middle): 0%
- Liver tissue improvement: Cobwebby necrosis (chronic B hepatitis [2]; ≥middle): 16.7%
- Liver tissue improvement: Degenerative necrosis in cell (chronic B hepatitis [2]; ≥middle): 16.7%
- Liver tissue improvement: Mobilization image of Kupfer cell (chronic B hepatitis [2]; ≥middle): 16.7%
- Liver tissue improvement: Ballooning of cell (chronic B hepatitis [2]; ≥slight): 50.0%
- Liver tissue improvement: Bridging necrosis (chronic B hepatitis [2]; ≥slight): 33.3%
- Liver tissue improvement: Evaluation (chronic B hepatitis [2]; ≥slight, 10/24): 41.7%
- Liver tissue improvement: Fatty degeneration (chronic B hepatitis [2]; ≥slight): 9.1%
- Liver tissue improvement: Moderation of lobule (chronic B hepatitis [2]; ≥slight): 6.7%
- Glisson's capsule improvement: Piecemeal necrosis (chronic B hepatitis [2]; ≥slight): 29.4%
- Glisson's capsule improvement: Fibrosis (chronic B hepatitis [2]; ≥slight): 17.4%
- Glisson's capsule improvement: Round cell infiltration (chronic B hepatitis [2]; ≥slight): 12.5%
- Liver tissue improvement: Cobwebby necrosis (chronic B hepatitis [2]; ≥slight): 37.5%
- Liver tissue improvement: Degenerative necrosis in cell (chronic B hepatitis [2]; ≥slight): 37.5%
- Liver tissue improvement: Mobilization image of Kupfer cell (chronic B hepatitis [2]; ≥slight): 41.7%
- modification or decomposition in contact with water (control composition (water)): a modification or decomposition occurs
- lapsed time at which disturbance in the absorption spectrum was first observed (control: water in lieu of serum albumin, 25° C): 24 h
- disturbance in the absorption spectrum (control: water, after 60 hours): the disturbance was further increased
- A/G change (chronic B hepatitis [3]): .uparw. **
- GOT change (chronic B hepatitis [3]): .dwnarw. ***
- GOT, test versus placebo (chronic B hepatitis [3]): + (S>P)
- GPT change (chronic B hepatitis [3]): .dwnarw. ***
- GPT, test versus placebo (chronic B hepatitis [3]): * (S>P)
- Globulin change (chronic B hepatitis [3]): .dwnarw. ***
- Globulin, test versus placebo (chronic B hepatitis [3]): + (S>P)
- HBe-AG (log conversion) change (chronic B hepatitis [3]): .uparw. ***
- HBe-AG (log conversion), test versus placebo (chronic B hepatitis [3]): * (S>P)
- HBe-Ab change (chronic B hepatitis [3]): .uparw. *
- HBe-Ab, test versus placebo (chronic B hepatitis [3]): * (S>P)
- Serum albumin change (chronic B hepatitis [3]): .uparw. +
- TTT change (chronic B hepatitis [3]): .dwnarw. ***
- Total cholesterol change (chronic B hepatitis [3]): .uparw. *
- Total cholesterol, test versus placebo (chronic B hepatitis [3]): * (S>P)
- ZTT change (chronic B hepatitis [3]): .dwnarw. **
- γ-GPT change (chronic B hepatitis [3]): .dwnarw. **
- Improvement (objective) (chronic B hepatitis [3]; 16 weeks, placebo 13%): 10%
- Improvement (HBe Ag-Ab) (chronic B hepatitis [3]; 16 weeks, placebo 25%): 51%
- Improvement (sec. judgement) (chronic B hepatitis [3]; 16 weeks, placebo 29%): 54%
- Improvement (Doc. on duty) (chronic B hepatitis [3]; 16 weeks, placebo 31%): 58%
- Effectiveness (slight or more) (chronic B hepatitis [3]; 16 weeks, placebo 34%): 63%
- Improvement (general) (chronic B hepatitis [3]; 16 weeks, placebo 39%): 66%
- Improvement (self) (chronic B hepatitis [3]; 16 weeks, placebo 40%): 53%
- Ratio of improvement: Middle or more ([4]; 30 mg/day): 11.4%
- Ratio of improvement: Slight or more ([4]; 30 mg/day): 26.9%
- Getting worse (functions of liver) [4, 5]: 3
- Middle improved (functions of liver) [4, 5]: 2
- No change (functions of liver) [4, 5]: 20
- Remarkably improved (functions of liver) [4, 5]: 2
- Ratio of improvement: Middle or more ([4]; 60 mg/day): 34.3%
- Ratio of improvement: Slight or more ([4]; 60 mg/day): 57.7%
- Getting worse (functions of liver) [4, 6]: 0
- Middle improved (functions of liver) [4, 6]: 4
- No change (functions of liver) [4, 6]: 11
- Remarkably improved (functions of liver) [4, 6]: 3
- Liver tissue improvement: Evaluation ([4]; ≥middle, 1/17): 5.9%
- Liver tissue improvement: Bridging necrosis ([4]; ≥middle, 3 patients): 0%
- Liver tissue improvement: Ballooning of cell ([4]; ≥middle): 0%
- Liver tissue improvement: Moderation of lobule ([4]; ≥middle): 0%
- Liver tissue improvement: Fatty degeneration ([4]; ≥middle): 0%
- Glisson's capsule improvement: Piecemeal necrosis ([4]; ≥middle): 0%
- Liver tissue improvement: Mobilization image of Kupfer cell ([4]; ≥middle): 6.3%
- Glisson's capsule improvement: Fibrosis ([4]; ≥middle): 0%
- Glisson's capsule improvement: Round cell infiltration ([4]; ≥middle): 0%
- Liver tissue improvement: Cobwebby necrosis ([4]; ≥middle): 5.9%
- Liver tissue improvement: Degenerative necrosis in cell ([4]; ≥middle): 5.9%
- Liver tissue improvement: Ballooning of cell ([4]; ≥slight): 0. %
- Liver tissue improvement: Moderation of lobule ([4]; ≥slight): 12.5%
- Liver tissue improvement: Fatty degeneration ([4]; ≥slight): 22.2%
- Liver tissue improvement: Evaluation ([4]; ≥slight, 10/17): 58.8%
- Glisson's capsule improvement: Piecemeal necrosis ([4]; ≥slight): 38.5%
- Liver tissue improvement: Mobilization image of Kupfer cell ([4]; ≥slight): 50.0%
- Glisson's capsule improvement: Fibrosis ([4]; ≥slight): 5.9%
- Glisson's capsule improvement: Round cell infiltration ([4]; ≥slight): 17.6%
- Liver tissue improvement: Cobwebby necrosis ([4]; ≥slight): 52.9%
- Liver tissue improvement: Degenerative necrosis in cell ([4]; ≥slight): 52.9%
